Laboratory results reported in patent US9260417B2, “Therapeutic methods and compositions involving allosteric kinase inhibition” (AMITECH THERAPEUTIC SOLUTIONS, INC., priority 2010, dated 2016).

Legend:
[1] = molecular target: CSF1R (Homo sapiens (Human), UniProt P07333); test: In vitro kinase panel (SelectScreen); type: biochemical
Experimental: (§1) In vitro kinase screen and competitive binding assay. […] 11-point Kd curves were determined for hits identified during the initial screen.

[2] = molecular target: EGFR (Homo sapiens (Human), UniProt P00533); test: In vitro kinase panel (SelectScreen); type: biochemical
Experimental: as §1

[3] = molecular target: KDR (VEGFR2) (Homo sapiens (Human), UniProt P35968); test: In vitro kinase panel (SelectScreen); type: biochemical
Chain of KDR (VEGFR2) (P35968 20-1356): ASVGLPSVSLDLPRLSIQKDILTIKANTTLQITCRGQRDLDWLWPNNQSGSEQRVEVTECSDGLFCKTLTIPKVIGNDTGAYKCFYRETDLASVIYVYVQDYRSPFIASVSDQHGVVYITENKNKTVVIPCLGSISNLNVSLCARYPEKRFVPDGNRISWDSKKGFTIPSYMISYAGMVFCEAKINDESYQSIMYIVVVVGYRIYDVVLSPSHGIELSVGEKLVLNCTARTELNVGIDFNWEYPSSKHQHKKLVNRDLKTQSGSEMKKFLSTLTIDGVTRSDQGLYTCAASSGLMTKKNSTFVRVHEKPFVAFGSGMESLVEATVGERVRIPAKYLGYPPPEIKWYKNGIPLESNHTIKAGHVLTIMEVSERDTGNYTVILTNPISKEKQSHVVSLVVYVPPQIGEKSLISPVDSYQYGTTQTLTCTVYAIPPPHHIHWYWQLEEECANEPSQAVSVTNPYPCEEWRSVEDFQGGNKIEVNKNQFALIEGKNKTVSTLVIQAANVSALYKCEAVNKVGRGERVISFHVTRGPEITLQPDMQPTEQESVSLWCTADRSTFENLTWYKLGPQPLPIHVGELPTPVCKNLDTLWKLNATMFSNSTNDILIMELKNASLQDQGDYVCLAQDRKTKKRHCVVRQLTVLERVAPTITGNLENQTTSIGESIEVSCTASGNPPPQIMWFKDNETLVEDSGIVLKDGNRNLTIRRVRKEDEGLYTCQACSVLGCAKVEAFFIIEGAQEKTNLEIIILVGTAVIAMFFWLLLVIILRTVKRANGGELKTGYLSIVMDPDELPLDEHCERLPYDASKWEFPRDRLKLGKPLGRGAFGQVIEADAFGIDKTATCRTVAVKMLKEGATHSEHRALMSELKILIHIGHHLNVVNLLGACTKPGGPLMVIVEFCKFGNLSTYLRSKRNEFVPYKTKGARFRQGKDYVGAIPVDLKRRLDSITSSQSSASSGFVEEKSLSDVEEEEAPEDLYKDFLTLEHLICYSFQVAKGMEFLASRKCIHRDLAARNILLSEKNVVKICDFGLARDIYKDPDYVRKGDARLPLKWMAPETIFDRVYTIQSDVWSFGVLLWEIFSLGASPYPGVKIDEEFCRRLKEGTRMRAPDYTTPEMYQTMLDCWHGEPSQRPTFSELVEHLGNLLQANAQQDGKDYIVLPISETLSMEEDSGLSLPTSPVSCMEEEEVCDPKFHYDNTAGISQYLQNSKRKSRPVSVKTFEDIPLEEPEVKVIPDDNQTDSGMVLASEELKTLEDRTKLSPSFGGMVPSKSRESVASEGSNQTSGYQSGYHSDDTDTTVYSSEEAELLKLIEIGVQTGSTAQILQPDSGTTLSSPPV
Experimental: as §1

[4] = molecular target: KIT (Homo sapiens (Human), UniProt P10721); test: KINOMEscan competitive binding assay
Chain of KIT (P10721 26-976): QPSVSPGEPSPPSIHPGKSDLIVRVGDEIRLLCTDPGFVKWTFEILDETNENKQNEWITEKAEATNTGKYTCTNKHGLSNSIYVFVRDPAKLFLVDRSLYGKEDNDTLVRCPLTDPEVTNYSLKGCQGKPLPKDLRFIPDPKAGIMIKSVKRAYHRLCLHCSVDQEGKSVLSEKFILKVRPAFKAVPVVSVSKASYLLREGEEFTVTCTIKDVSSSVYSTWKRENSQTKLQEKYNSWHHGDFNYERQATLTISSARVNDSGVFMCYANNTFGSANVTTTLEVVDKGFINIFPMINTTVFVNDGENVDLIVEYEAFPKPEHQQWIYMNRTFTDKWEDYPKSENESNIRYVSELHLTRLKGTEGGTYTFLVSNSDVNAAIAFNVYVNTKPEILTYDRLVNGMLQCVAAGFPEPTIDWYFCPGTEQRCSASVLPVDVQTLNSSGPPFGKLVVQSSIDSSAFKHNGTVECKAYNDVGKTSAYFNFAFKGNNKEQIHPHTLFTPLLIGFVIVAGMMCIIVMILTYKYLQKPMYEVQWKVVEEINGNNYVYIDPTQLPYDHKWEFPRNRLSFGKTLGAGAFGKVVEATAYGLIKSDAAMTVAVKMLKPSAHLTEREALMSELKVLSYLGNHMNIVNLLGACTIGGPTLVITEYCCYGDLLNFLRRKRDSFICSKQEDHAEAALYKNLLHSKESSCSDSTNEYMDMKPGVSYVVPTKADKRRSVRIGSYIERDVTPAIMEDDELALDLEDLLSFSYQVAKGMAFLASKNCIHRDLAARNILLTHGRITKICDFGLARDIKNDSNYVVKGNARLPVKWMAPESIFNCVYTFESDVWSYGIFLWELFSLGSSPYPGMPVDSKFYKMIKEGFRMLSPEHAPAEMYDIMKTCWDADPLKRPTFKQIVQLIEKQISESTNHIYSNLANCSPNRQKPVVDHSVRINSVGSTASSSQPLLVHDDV
Experimental: In vitro kinase screen and competitive binding assay. […] For the competitive binding assay, test compounds were screened at 10 μM against 70 diverse kinase targets for competitive binding using the KINOMEscan™ technology (Ambit Biosciences) (Karaman, et al. (2008) Nature biotechnology 26:127-132). 11-point Kd curves were determined for hits identified during the initial screen.

[5] = tested on: Tg(fli1:EGFP) zebrafish embryos; test: Zebrafish angiogenesis model; conditions: for blood vessel formation in zebrafish embryos: treated 20-48 hpf, 1 μM 6 or SU5416, up to 10 μM 3; for effect on established intersegmental vessels: compound added at 30 hpf, […] 6, 1 μM sorafenib; for viability of zebrafish embryos: treatment at 48-72 hpf
Experimental: Embryos were treated with 1 μM 6 or SU5416, or 10 μM 3 from 20 hours post fertilization (hpf) until 48 hpf. Representative 3D reconstructions of the blood vasculature are shown for both the head and tail regions of the embryo. Designations for the major vessels in the head and tail of the zebrafish embryo at 48 hpf are available in FIG. 8A. (FIG. 3B) Disruption of lumen formation in the zebrafish during late vessel maturation. Zebrafish treated with either 1 μM 6 or 10 μM 3 from 20-48 hpf were imaged at 35 and 48 hpf. […] Shown is 3D overlap reconstruction of the GFP expressing intersegmental vessels with TUNEL-positive nuclei at 48 hpf (shown in red). Representative phase contrast views as well as quantification of intersegmental vessel volumes from FIG. 3A and FIG. 3B can be found in FIG. 8B-D, respectively. (FIG. 3C) Time course of drug addition to zebrafish. […] At 30 hpf the zebrafish embryos established early vessels with evident lumens. […] All scale bars=100 μm.
Z-stacks from laser scanning confocal microscopy are shown depicting formation of the intersegmental vessels at 48 hpf. n=6 embryos/treatment. (FIG. 4B) HUVECs were co-cultured with hTERT-human hepatic stellate cells in a 3-D collagen matrix in the presence of complete EBM-2 medium to monitor pericyte-associated endothelial tube formation. […] The endothelial tubes were stained at 24 h by adding 2 μl FITC labeled Ulex europaeus lectin (Vector labs) per well. Images were acquired 48 h post seeding of the cells. One representative panel from 3 independent experiments is shown. Green—FITC lectin labeled endothelial cells, Red—DiIC(3) labeled stellate cells. […] Scale bar=200 μm. (FIG. 4C) Tube lengths were measured using Metamorph software for each tube for all 10 fields that were acquired. The % pericyte-covered tube length was calculated from the ratio of tube length sums for the tubes with and without pericyte contact. Error bars are reported as ±SEM of two wells per group. *indicates p<0.05 compared to DMSO group.
Zebrafish studies. Transgenic Tg(fli1:EGFP) zebrafish embryos were purchased from www.zfin.org and reported elsewhere (Lawson, et al. (2002) Dev Biol 248:307-318) and maintained according to (“Zebrafish—A Practical Approach”, Oxford University Press, 2002). Compounds in DMSO stock solutions were diluted directly into the water and vessels were imaged for GFP expression using a Nikon c1-si confocal microscope. Apoptosis was measured by TUNEL staining using the Apoptag in situ Red Fluorescence Kit (Chemicon) with a protocol described previously (Stanton, et al. (2006) The Journal of biological chemistry 281:28782-28793).

[6] = tested on: HUVECs co-cultured with hTERT-human hepatic stellate cells; test: Stellate cell/endothelial cell co-culture tube formation assay; type: cell-based; conditions: […] 6, […] 3, 1.0 μM imatinib, 0.5 μM GW 5074
Experimental: One representative panel from 3 independent experiments is shown. […] Scale bar=200 μm.
The stellate cells were washed in PBS and mixed with early passage HUVECs (p<5) at a ratio of 1:4 and mixed into a 3.75 mg/ml Type 1 Rat tail collagen matrix (BD Biosciences) in M-199 media. 30 μl of this mixture was seeded onto each well of a half-area 96 well plate (Corning). The collagen was allowed to polymerize for 30 min at 37° C. and […] of complete EBM-2 media was added to each well. Various inhibitors were serially diluted in DMSO and subsequently added to duplicate wells 6 h post cell seeding. […] The endothelial tubes and the stellate cells were imaged at 48 h with a 10× objective on a confocal microscope. Images were collected across five fields per well.
Stellate cell/endothelial cell tube formation assay and mouse matrigel model. This assay was performed as described in the SI Methods. The stellate cells were a gift from Dr. David Brenner and previously described (Schnabl, et al. (2002) Laboratory investigation; a journal of technical methods and pathology 82:323-333). […] The mouse matrigel model was performed as previously described (Eliceiri, et al. (1999) Molecular cell 4:915-924 5) and further details of immunohistochemistry and animal dosing can be found herein.
To validate the findings of Example 10, a co-culture angiogenesis assay was utilized to evaluate similar combinations of PDGFR and RAF inhibitors. In the assay, HUVECs are mixed with hepatic stellate cells (a pericyte found in the perisinusoidal space of the liver) in a 3D-collagen gel. The co-culture produced endothelial tubes with pericyte contacts (from the stellate cells) that can be imaged and quantified as shown in FIGS. 4B and C.

[7] = tested on: XPA-1 cells; test: Cell cycle analysis of XPA-1 cells (flow cytometry); type: cell-based; conditions: 5 μM, 20 h
Experimental: For cell cycle analysis, cells were grown in complete DMEM+10% FBS in the presence of each inhibitor and harvested after 20 h of inhibitor treatment. Cell cycle analysis was performed by flow cytometry following propidium iodide staining. The cells were harvested, fixed with ice cold methanol, treated for 45 min with 10 μg/ml of RNAse and resuspended in PBS containing 10 μg/ml of PI, and analysed by flow cytometry. […] For corresponding confocal microscopy images, cells attached to coverslips were fixed with cold methanol and permeabilized in PBS containing 0.1% triton X-100 for two minutes and blocked for 60 minutes, at room temperature with 2% BSA in PBS. Cells were stained with the DNA binding dye TOPRO-3 (Invitrogen) to label the DNA and laminB (Santa Cruz) to label the nuclear envelope. The anti-Lamin B antibody was used at a 1:100 dilution for two hours at room temperature. After washing several times with PBS, cells were stained for two hours at room temperature, with secondary antibody diluted 1:300 and co-incubated with TOPRO-3 (1:500) (Invitrogen). Samples were mounted in Vectashield hard-set mounting media (Vector Laboratories) and imaged on a Nikon Eclipse Cl confocal microscope with a 1.4 NA 60× oil-immersion lens, using minimum pinhole (30 μm). Images were captured and processed using EZ-C1 3.50 imaging software (Nikon, Inc). Scale bars, 10 μm.

Chain of EGFR (P00533 25-1210): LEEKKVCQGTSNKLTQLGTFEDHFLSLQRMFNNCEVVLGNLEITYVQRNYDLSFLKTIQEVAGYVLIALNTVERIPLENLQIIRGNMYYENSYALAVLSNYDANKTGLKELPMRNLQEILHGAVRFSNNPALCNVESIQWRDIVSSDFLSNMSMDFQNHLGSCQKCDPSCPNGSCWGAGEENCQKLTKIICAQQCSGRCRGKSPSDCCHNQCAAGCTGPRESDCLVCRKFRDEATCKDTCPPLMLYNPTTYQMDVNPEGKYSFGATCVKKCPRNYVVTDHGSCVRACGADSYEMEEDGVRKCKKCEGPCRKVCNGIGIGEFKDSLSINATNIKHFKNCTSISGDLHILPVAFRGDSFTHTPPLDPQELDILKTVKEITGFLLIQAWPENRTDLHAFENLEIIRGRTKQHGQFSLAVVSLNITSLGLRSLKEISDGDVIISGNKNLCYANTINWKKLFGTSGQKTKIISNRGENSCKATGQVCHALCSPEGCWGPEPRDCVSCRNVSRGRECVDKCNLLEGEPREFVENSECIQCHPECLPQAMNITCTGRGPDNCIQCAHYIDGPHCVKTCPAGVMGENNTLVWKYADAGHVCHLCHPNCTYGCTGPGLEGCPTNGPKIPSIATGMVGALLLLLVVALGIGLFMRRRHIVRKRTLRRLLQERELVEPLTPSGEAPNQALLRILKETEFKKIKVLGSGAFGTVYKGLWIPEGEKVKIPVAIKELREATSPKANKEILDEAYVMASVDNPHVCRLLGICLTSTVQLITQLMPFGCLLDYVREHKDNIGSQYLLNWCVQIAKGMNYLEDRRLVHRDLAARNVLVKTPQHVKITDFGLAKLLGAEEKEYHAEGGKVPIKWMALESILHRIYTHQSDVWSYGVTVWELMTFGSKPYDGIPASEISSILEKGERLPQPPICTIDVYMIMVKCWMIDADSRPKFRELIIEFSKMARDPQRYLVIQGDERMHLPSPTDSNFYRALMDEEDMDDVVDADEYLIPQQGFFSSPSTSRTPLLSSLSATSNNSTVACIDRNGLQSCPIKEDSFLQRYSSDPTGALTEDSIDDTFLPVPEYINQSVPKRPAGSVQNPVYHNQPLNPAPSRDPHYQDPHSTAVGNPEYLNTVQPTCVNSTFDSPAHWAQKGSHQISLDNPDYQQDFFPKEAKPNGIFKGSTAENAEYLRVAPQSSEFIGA
Chain of CSF1R (P07333 20-972): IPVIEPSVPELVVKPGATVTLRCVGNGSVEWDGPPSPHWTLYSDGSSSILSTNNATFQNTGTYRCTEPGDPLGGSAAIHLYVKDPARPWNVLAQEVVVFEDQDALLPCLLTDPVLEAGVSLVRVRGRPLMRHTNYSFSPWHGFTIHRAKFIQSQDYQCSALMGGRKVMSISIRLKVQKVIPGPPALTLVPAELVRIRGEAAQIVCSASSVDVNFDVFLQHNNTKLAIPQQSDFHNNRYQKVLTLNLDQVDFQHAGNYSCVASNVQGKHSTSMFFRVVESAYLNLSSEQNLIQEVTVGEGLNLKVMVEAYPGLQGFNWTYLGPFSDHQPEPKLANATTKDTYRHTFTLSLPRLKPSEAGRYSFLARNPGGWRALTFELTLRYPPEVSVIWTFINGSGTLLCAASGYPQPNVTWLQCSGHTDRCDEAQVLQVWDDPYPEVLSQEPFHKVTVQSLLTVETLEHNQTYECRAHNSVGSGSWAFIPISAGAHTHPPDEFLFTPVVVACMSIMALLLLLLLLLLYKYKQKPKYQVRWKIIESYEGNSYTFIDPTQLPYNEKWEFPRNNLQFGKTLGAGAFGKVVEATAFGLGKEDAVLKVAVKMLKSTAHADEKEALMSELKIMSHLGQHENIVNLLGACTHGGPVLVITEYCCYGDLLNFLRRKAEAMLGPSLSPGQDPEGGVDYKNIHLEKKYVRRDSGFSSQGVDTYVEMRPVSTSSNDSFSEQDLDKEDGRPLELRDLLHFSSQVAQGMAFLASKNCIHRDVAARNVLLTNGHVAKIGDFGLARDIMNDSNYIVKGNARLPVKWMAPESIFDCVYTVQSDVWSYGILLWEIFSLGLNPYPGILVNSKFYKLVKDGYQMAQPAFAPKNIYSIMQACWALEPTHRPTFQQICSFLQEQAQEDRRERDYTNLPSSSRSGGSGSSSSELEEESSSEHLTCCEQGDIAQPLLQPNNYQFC

Nc1cc(Oc2ccc(-c3nnc(Nc4cccc(C(F)(F)F)c4)[nH]3)cc2)ncn1 [Compound 3]
% Inhibition at 10 μM [1]: 79%
% Inhibition at 10 μM [2]: −2%
% Inhibition at 10 μM [3]: 31%
Kd [4]: 3.7 nM
blood vessel formation in zebrafish embryos [5]: had no effect
endothelial tube formation and % pericyte-covered tube length [6]: did not affect endothelial tube formation
cell cycle / mitotic progression [7]: showed no effect

CSc1nc(N)cc(Oc2ccc(-c3nnc(Nc4cccc(C(F)(F)F)c4)[nH]3)cc2)n1 [Compound 6]
% Inhibition at 10 μM [1]: 23%
% Inhibition at 10 μM [2]: −3%
% Inhibition at 10 μM [3]: 16%
% Control ([4]; 10 uM): 0%
effect on established intersegmental vessels [5]: did not suppress the vascular growth and patterning
blood vessel formation in zebrafish embryos [5]: failed to form mature intersegmental vessels
viability of zebrafish embryos [5]: all viable
endothelial tube formation and % pericyte-covered tube length [6]: dramatic reduction
cell cycle / mitotic progression [7]: G2/M arrest in all tumor cell lines tested

CNC(=O)c1cc(Oc2ccc(NC(=O)Nc3ccc(Cl)c(C(F)(F)F)c3)cc2)ccn1 [sorafenib, reference compound]
effect on established intersegmental vessels [5]: disrupted mature intersegmental blood vessels
viability of zebrafish embryos [5]: induced death in all animals tested
cell cycle / mitotic progression [7]: had no effect on mitotic progression
